Values of other authors in patent US20070111204A1, “Methods for detecting nucleic acid variations” (priority 2003, published 2007).

Tested on: CGRP
Conditions: marmoset, electrical stimulation of the trigeminal ganglion (Doods et al. 2000)

In the case of `NCCCC[C@H](NC(=O)[C@@H](Cc1cc(Br)c(O)c(Br)c1)NC(=O)N1CCC(N2Cc3ccccc3NC2=O)CC1)C(=O)N1CCN(c2ccncc2)CC1` [BIBN4096BS], the “effect on increase of facial blood flow” value is listed as “blocked”.
